Assay results from patent US20030055070A1, “Phosphodiesterase type 5 (PDE5) inhibitors for the treatment of selective serotonin reuptake inhibitor (SSR) induced sexual dysfunction” (priority 1999, published 2003).

Key:
[1] = system: SSRI-induced sexual side effects; details: case studies of patients taking SSRIs; cited from earlier work
[2] = system: men with ED taking concomitant SSRIs; experiment: Retrospective subanalysis of 10 double-blind, placebo-controlled sildenafil citrate studies, IIEF questionnaire; patients taking concomitant SSRIs; type: in vivo, human
Procedure: (§1) A retrospective analysis of combined data from 10 Phase II/III double-blind, placebo-controlled, fixed- and flexible-dose trials identified a subgroup of men with ED who were receiving 5-200 mg of sildenafil citrate (S) or placebo (P) and taking concomitant SSRIs. Studies of sildenafil citrate in various populations have been reported. For example, Goldstein et al. report the results of two sildenafil citrate studies in men. In one study 532 men were treated with oral sildenafil citrate (25, 50 or 100 mg) or placebo over 24 weeks to study dose-response. In the second study 329 men were treated with sildenafil citrate or placebo with dose escalation to 100 mg based on efficacy and tolerance. Additional studies may be found in the following references: Derry et al. (1998), Dinsmore et al. (1999), Goldstein et al. (1998), Padma-Nathan et al. (1998) and Rendell et al. (1999). Analysis of efficacy (ANCOVA) included responses to several questions including question 9 (Q9; frequency of ejaculation) and question 10 (Q10; frequency of orgasm) of the International Index of Erectile Function. In the International Index of Erectile Function, sexual activity includes intercourse, caressing, foreplay and masturbation; sexual intercourse is defined as vaginal penetration of a partner by the respondent; sexual stimulation includes situations like foreplay with a partner, looking at erotic pictures, etc.; ejaculation: the ejection of semen from the penis (or the feeling of this). Question 9 is, “Over the past 4 weeks, when you had sexual stimulation or intercourse how often did you ejaculate?” Question 10 is, “Over the past 4 weeks, when you had sexual stimulation or intercourse how often did you have the feeling of orgasm (with or without ejaculation)? Scores are based on a scale from 1 (almost never or never) to 5 (almost always or always), with 0 representing “No sexual stimulation/intercourse.” Each question was scored from 0 to 5, with lower scores indicating greater sexual dysfunction. Results are expressed as mean baseline score's standard error of mean, (±SEM) and mean change from baseline (±SEM) at the end of treatment (6 to 24 weeks).
(§2) This was a retrospective subanalysis of combined data from 10 double-blind, placebo-controlled, fixed- and flexible-dose studies with sildenafil citrate for the treatment of ED. The subanalysis was conducted to assess whether treatment with sildenafil citrate can alleviate symptoms of sexual dysfunction in men taking SSRIs. The studies lasted for 6 to 24 weeks and dosing of the study drug ranged from 5 mg to 200 mg of sildenafil citrate or matching placebo. Patients were instructed to take medication approximately 1 hour before anticipated sexual activity but not more than once daily.
(§3) A total of 3414 patients were randomized to treatment. The main inclusion criteria were as follows: Men aged 18 years and older; Clinical diagnosis of ED of more than 6 months' duration; Stable relationship with a female partner for at least 6 months prior to the study; and written informed consent. The main exclusion criteria were as follows: Penile anatomical deformities; Major illness or uncontrolled psychiatric disorder; Concomitant treatment with nitrates or nitric oxide donors, estrogens, androgens, or anticoagulants. Other treatments for sexual dysfunction were not allowed during the study.
Efficacy was assessed at the end of treatment (6 to 24 weeks) by responses to the validated 15-item International Index of Erectile Function (IIEF) questionnaire. Rosen et al. (1997) “The International Index of Erectile Function (IIEF): a Multidimensional Scale for Assessment of Erectile Dysfunction,” Urology 49:822-830. Responses were graded on a scale of 1 (“almost never/never”) to 5 (“almost always/always”), with a score of 0 indicating no sexual activity. Efficacy results were evaluated using analysis of covariance (ANCOVA) and were expressed as mean scores. […]

[3] = system: SSRI induced sexual dysfunction in men and women; details: nine men, five women; twelve on SSRIs, two on mirtazapine; all patients; cited from earlier work
[4] = system: men with ED; experiment: Retrospective subanalysis of 10 double-blind, placebo-controlled sildenafil citrate studies, IIEF questionnaire; patients without SSRIs; type: in vivo, human
Procedure: as §1, §2, §3
Efficacy was assessed at the end of treatment (6 to 24 weeks) by responses to the validated 15-item International Index of Erectile Function (IIEF) questionnaire. Rosen et al. (1997) “The International Index of Erectile Function (IIEF): a Multidimensional Scale for Assessment of Erectile Dysfunction,” Urology 49:822-830. Responses were graded on a scale of 1 (“almost never/never”) to 5 (“almost always/always”), with a score of 0 indicating no sexual activity. Efficacy results were evaluated using analysis of covariance (ANCOVA) and were expressed as mean scores.

[5] = system: SSRI induced sexual dysfunction; details: four patients (two men, two women); all reported; cited from earlier work
[6] = with SSRIs, 5-200 mg, end of treatment (6 to 24 weeks), scale 0-5
[7] = with SSRIs, baseline, scale 0-5
[8] = no SSRI, end of treatment (6 to 24 weeks), 5-200 mg, scale 0-5
[9] = no SSRI, p<0.0001 versus placebo
[10] = without SSRIs, 5-200 mg, end of treatment (6 to 24 weeks), scale 0-5
[11] = without SSRIs, baseline, scale 0-5

For `CCCc1nn(C)c2c(=O)[nH]c(-c3cc(S(=O)(=O)N4CCN(C)CC4)ccc3OCC)nc12.O=C(O)CC(O)(CC(=O)O)C(=O)O` [Sildenafil citrate, 1-[[3-(6,7-dihydro-1-methyl-7-oxo-3-propyl-1H-pyrazolo[4,3-d]pyrimidin-5-yl)-4-ethoxyphenyl]sulfonyl]-4-methylpiperazine citrate], the “Response to treatment, in words” value [1] is listed as “responding well”, the “Frequency of orgasm (Question 10), effect versus placebo, in words” value ([2]; concomitant SSRI, p<0.01 versus placebo, citrate) is listed as “significantly improved” and the “Frequency of ejaculation (Question 9), effect versus placebo, in words” value ([2]; concomitant SSRI, p<0.02 versus placebo, citrate) is listed as “significantly improved”. The “Important aspects of sexual function, in words” value ([2]; patients with ED with concomitant SSRI) was “significantly improved”, the “IIEF Q9 frequency of ejaculation, mean change from baseline ± SEM” value [2, 6] was 1.16 ± 0.25 and the “IIEF Q10 frequency of orgasm, mean change from baseline ± SEM” value [2, 6] was 1.34 ± 0.27. The “IIEF Q9 frequency of ejaculation, mean baseline score ± SEM” value [2, 7] was 2.42 ± 0.23, the “IIEF Q10 frequency of orgasm, mean baseline score ± SEM” value [2, 7] was 2.24 ± 0.22 and the “Sexual functioning, in words” value [3] was “statistically significant improvement”. The “Improvement of score, erection confidence (Question 15)” value ([4]; no SSRI, baseline to endpoint) was 76%, the “Improvement of score, erection firmness (Question 2)” value ([4]; no SSRI, baseline to endpoint) was 78% and the “Improvement of score, erection frequency (Question 1)” value ([4]; no SSRI, baseline to endpoint) was 60%. For the same compound, the “Improvement of score, maintenance ability (Question 5)” value ([4]; no SSRI, baseline to endpoint) was 117%, the “Increase of mean score, intercourse enjoyment (Question 8)” value ([4]; no SSRI, baseline to endpoint) was 70% and the “Increase of mean score, intercourse frequency (Question 6)” value ([4]; no SSRI, baseline to endpoint) was 57%. The “Increase of mean score, intercourse satisfaction (Question 7)” value ([4]; no SSRI, baseline to endpoint) was 93%, the “Increase of mean score, overall satisfaction with sex life (Question 13)” value ([4]; no SSRI, baseline to endpoint) was 68% and the “Increase of mean score, satisfaction with the relationship (Question 14)” value ([4]; no SSRI, baseline to endpoint) was 40%. The “IIEF Question 1 erection frequency, baseline mean score” value ([4]; no SSRI, baseline, scale 0-5) was 2.27 ± 0.04, the “IIEF Question 2 erection firmness, baseline mean score” value ([4]; no SSRI, baseline, scale 0-5) was 1.97 ± 0.03 and the “IIEF Question 5 maintenance ability, baseline mean score” value ([4]; no SSRI, baseline, scale 0-5) was 1.54 ± 0.03. The “IIEF Question 6 intercourse frequency, baseline mean score” value ([4]; no SSRI, baseline, scale 0-5) was 2.00 ± 0.03, the “IIEF Question 7 intercourse satisfaction, baseline mean score” value ([4]; no SSRI, baseline, scale 0-5) was 1.75 ± 0.03 and the “IIEF Question 8 intercourse enjoyment, baseline mean score” value ([4]; no SSRI, baseline, scale 0-5) was 1.86 ± 0.03. The “IIEF Question 13 overall satisfaction, baseline mean score” value ([4]; no SSRI, baseline, scale 0-5) was 2.00 ± 0.02, the “IIEF Question 14 relationship satisfaction, baseline mean score” value ([4]; no SSRI, baseline, scale 0-5) was 2.63 ± 0.03 and the “IIEF Question 15 erection confidence, baseline mean score” value ([4]; no SSRI, baseline, scale 0-5) was 1.76 ± 0.02. The “Increase of mean score from mean baseline score, ability to achieve an erection (Question 3)” value ([4]; no SSRI, end of treatment) was 80%, the “Increase of mean score from mean baseline score, ability to maintain an erection (Question 4)” value ([4]; no SSRI, end of treatment) was 107% and the “IIEF Question 1 erection frequency, endpoint mean score” value [4, 8] was 3.63 ± 0.04. For the same compound, the “IIEF Question 2 erection firmness, endpoint mean score” value [4, 8] was 3.50 ± 0.04, the “IIEF Question 5 maintenance ability, endpoint mean score” value [4, 8] was 3.35 ± 0.04 and the “IIEF Question 6 intercourse frequency, endpoint mean score” value [4, 8] was 3.13 ± 0.03. For the same compound, the “IIEF Question 7 intercourse satisfaction, endpoint mean score” value [4, 8] was 3.38 ± 0.04, the “IIEF Question 8 intercourse enjoyment, endpoint mean score” value [4, 8] was 3.16 ± 0.03 and the “IIEF Question 13 overall satisfaction, endpoint mean score” value [4, 8] was 3.36 ± 0.03. For the same compound, the “IIEF Question 14 relationship satisfaction, endpoint mean score” value [4, 8] was 3.68 ± 0.03, the “IIEF Question 15 erection confidence, endpoint mean score” value [4, 8] was 3.10 ± 0.03 and the “Frequency of ejaculation (Question 9), mean score versus placebo, in words” value [4, 9] was “increased significantly”. The “Frequency of orgasm (Question 10), mean score versus placebo, in words” value [4, 9] was “increased significantly”, the “Important aspects of sexual function, in words” value ([4]; patients with ED without concomitant SSRI) was “significantly improved” and the “IIEF Q9 frequency of ejaculation, mean change from baseline ± SEM” value [4, 10] was 0.90 ± 0.04. For the same compound, the “IIEF Q10 frequency of orgasm, mean change from baseline ± SEM” value [4, 10] was 0.93 ± 0.04, the “IIEF Q9 frequency of ejaculation, mean baseline score ± SEM” value [4, 11] was 2.74 ± 0.04 and the “IIEF Q10 frequency of orgasm, mean baseline score ± SEM” value [4, 11] was 2.65 ± 0.04. The “Effect on SSRI induced sexual dysfunction, in words” value [5] was “rapid reversal of SSRI induced sexual dysfunction”.
